The record followed here is the NIST ThermoML archive (doi:10.1016/j.fluid.2014.07.032).

For data set [1] the following is noted: Liquid; for mass density: 298.15 K, 101.33 kPa, Vibrating tube method; for Normal boiling temperature: Ebulliometric method (Recirculating still).
Data set [2] in a line: refractive index (Na D-line) (dimensionless). To be noted: 298.15 K; 101.33 kPa; Liquid; Standard Abbe refractometry.

Numbers after ± are expanded uncertainties.

As for `CCCCC(CC)COC(C)=O` (stereo not drawn) [2-ethylhexyl acetate], in data set [1], the mass density came out at 872.25 ± 0.24 kg/m3 and the Normal boiling temperature was 199.10 ± 0.2 °C. For the same molecule, in data set [2], the refractive index turned out to be 1.4205 ± 0.0007.
On to `CC(=O)O` [acetic acid], for which, in data set [1], the mass density stood at 1049.42 ± 0.08 kg/m3 and the Normal boiling temperature turned out to be 118.1 ± 1 °C. Moreover, the refractive index in data set [2] amounted to 1.3713 ± 0.0007.
As to `O` [water], the Normal boiling temperature in data set [1] amounted to 100.1 ± 1 °C. The refractive index in data set [2] was found to be 1.3324 ± 0.0007.
